Patent US20230219965A1 (KSQ Therapeutics, Inc., priority 2020, published 2023)

biological target: USP1/UAF1 enzyme (Homo sapiens, UniProt O94782); assay: USP1/UAF1 deubiquitination assay (ubiquitin-rhodamine 110 substrate); format: biochemical; details: read-out: USP1 IC50 (Ub-Rho)
Protocol: Certain Compounds of the Disclosure were assessed for USP1/UAF1 activity in a Ubiquitin Rhodamine assay modified from those described previously.
Deubiquitinase activity was measured using ubiquitin-rhodamine 110 as a substrate. Cleavage of the amide bond between rhodamine and the c-terminal glycine of ubiquitin yields an increase in fluorescence signal. The assay was conducted in 20 μl total volume of assay buffer (50 mM Tris-HCl, pH 7.8, 0.5 mM EDTA, 0.01% Bovine Serum Albumin, 1 mM DTT, 0.01% Tween-20), and 0.05 nM USP1/UAF1 enzyme. Reaction was initiated by addition of 150 nM Ubiquitin-rhodamine (Boston Biochem) substrate.
Compounds of the Disclosure, dissolved in DMSO were tested in dose response format, beginning at […].
The example compounds listed below were added to enzyme/assay buffer mix and incubated 10 min. Substrate mix was added, and reaction mix was read in kinetic mode for 30 min at Ex480/Em540 and IC50 response curves were plotted.
Data for all assay formats was calculated as percent inhibition compared with control wells. Percent inhibition was calculated using the following equation: % inhibition=100×[1−(X−min)/(max−min)], where X is the raw data readout, min is the average of the no enzyme control wells (n=32), max is the average of the DMSO control well (n=32). IC50 values were calculated using the standard four parameter curve fitting algorithm in either Prism GraphPad (La Jolla, Calif.) software, or Collaborative Drug Discovery (Burlingame, Calif.) CDD Vault. See Chem. Biol. 20(1): 55-62 (Jan. 24, 2013); Bioorg. Med. Chem. Lett. 23(20): 5660-5666 (Oct. 15, 2013).

USP1/UAF1 enzyme, sequence (O94782 whole entry): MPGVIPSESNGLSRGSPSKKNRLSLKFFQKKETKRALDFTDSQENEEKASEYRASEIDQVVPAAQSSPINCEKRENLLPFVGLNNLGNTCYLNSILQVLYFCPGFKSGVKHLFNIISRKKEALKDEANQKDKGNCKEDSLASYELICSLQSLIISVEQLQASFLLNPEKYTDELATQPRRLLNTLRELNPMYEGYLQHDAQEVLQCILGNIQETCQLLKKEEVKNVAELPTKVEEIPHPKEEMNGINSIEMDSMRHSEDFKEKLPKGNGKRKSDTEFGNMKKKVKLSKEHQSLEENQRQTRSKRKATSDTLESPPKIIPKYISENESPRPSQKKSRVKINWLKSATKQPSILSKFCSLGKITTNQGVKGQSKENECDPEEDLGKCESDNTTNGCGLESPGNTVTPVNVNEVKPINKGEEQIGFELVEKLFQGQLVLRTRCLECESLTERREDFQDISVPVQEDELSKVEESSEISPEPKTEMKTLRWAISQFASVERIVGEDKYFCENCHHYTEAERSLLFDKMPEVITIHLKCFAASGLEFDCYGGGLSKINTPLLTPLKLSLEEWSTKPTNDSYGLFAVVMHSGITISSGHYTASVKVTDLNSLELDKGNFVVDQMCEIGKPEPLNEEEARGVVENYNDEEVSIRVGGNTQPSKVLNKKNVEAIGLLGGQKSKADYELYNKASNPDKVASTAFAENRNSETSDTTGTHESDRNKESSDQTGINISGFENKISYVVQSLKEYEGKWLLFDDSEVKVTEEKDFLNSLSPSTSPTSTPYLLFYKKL
USP1/UAF1 enzyme, sequence (Q8TAF3 whole entry partner): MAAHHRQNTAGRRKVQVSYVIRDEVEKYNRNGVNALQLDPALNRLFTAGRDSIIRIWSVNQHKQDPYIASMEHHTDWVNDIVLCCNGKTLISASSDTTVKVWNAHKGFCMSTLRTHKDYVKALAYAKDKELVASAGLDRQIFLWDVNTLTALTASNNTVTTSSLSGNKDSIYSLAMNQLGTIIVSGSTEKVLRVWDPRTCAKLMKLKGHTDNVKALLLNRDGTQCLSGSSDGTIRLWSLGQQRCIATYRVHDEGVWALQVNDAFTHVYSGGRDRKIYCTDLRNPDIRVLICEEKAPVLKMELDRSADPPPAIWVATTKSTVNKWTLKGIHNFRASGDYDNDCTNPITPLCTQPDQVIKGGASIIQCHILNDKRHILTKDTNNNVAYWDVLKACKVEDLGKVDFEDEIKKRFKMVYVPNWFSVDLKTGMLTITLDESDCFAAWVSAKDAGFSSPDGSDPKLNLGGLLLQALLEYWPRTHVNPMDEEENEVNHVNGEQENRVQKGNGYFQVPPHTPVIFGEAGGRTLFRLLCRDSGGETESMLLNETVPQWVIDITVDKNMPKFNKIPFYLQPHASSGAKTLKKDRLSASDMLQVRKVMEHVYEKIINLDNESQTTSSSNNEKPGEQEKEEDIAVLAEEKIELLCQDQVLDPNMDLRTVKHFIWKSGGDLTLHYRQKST

Row | IC50 [nM] | Compound
1 | 100 to 500 | CCn1cc(C(F)(F)F)nc1-c1ccc(CC2NCCn3nc(-c4c(OC)ncnc4C4CC4)cc32)cc1 (stereo not drawn) [Example 361, 2-(4-cyclopropyl-6-methoxypyrimidin-5-yl)-4-(4-(1-ethyl-4-(trifluoromethyl)-1H-imidazol-2-yl)benzyl)-4,5,6,7-tetrahydropyrazolo[1,5-a]pyrazine]
2 | < 100 | CC(CF)n1cc(C(F)(F)F)nc1-c1ccc(CN2C(=O)CCn3nc(-c4c(OC(F)F)ncnc4C4CC4)nc32)cc1 (stereo not drawn) [Example 366, 2-(4-cyclopropyl-6-(difluoromethoxy)pyrimidin-5-yl)-4-(4-(1-(1-fluoropropan-2-yl)-4-(trifluoromethyl)-1H-imidazol-2-yl)benzyl)-6,7-dihydro-[1,2,4]triazolo[1,5-a]pyrimidin-5(4H)-one]
3 | < 100 | O=C1CCn2nc(-c3c(OC(F)F)ncnc3C3CC3)nc2N1Cc1ccc(-c2nc(C(F)(F)F)cn2CCF)cc1 [Example 367, 2-(4-cyclopropyl-6-(difluoromethoxy)pyrimidin-5-yl)-4-(4-(1-(2-fluoroethyl)-4-(trifluoromethyl)-1H-imidazol-2-yl)benzyl)-6,7-dihydro-[1,2,4]triazolo[1,5-a]pyrimidin-5(4H)-one]
4 | < 100 | Cn1cc(C(F)(F)F)nc1-c1ccc(CN2C(=O)CCn3nc(-c4c(OC(F)F)ncnc4C4CC4)nc32)cc1 [Example 368, 2-(4-cyclopropyl-6-(difluoromethoxy)pyrimidin-5-yl)-4-(4-(1-methyl-4-(trifluoromethyl)-1H-imidazol-2-yl)benzyl)-6,7-dihydro-[1,2,4]triazolo[1,5-a]pyrimidin-5(4H)-one]
5 | < 100 | CC(C)n1cc(C(F)(F)F)nc1-c1ccc(CN2C(=O)CCn3nc(-c4c(OC(F)F)ncnc4C4CC4)nc32)cc1 [Example 369, 2-(4-cyclopropyl-6-(difluoromethoxy)pyrimidin-5-yl)-4-(4-(1-isopropyl-4-(trifluoromethyl)-1H-imidazol-2-yl)benzyl)-6,7-dihydro-[1,2,4]triazolo[1,5-a]pyrimidin-5(4H)-one]
6 | < 100 | COc1ncnc(C2CC2)c1-c1nc2n(n1)CCC(=O)N2C(C)c1ccc(-n2nc(C(F)(F)F)cc2OC)cc1 (stereo not drawn) [Example 372, 2-(4-cyclopropyl-6-methoxypyrimidin-5-yl)-4-(1-(4-(5-methoxy-3-(trifluoromethyl)-1H-pyrazol-1-yl)phenyl)ethyl)-6,7-dihydro-[1,2,4]triazolo[1,5-a]pyrimidin-5(4H)-one]
7 | 100 to 500 | CCn1cc(C(F)(F)F)nc1-c1ccc(CN2C(=O)CCn3nc(-c4c(C5CC5)ccnc4OC(F)F)nc32)cc1 [Example 373, 2-(4-cyclopropyl-2-(difluoromethoxy)pyridin-3-yl)-4-(4-(1-ethyl-4-(trifluoromethyl)-1H-imidazol-2-yl)benzyl)-6,7-dihydro-[1,2,4]triazolo[1,5-a]pyrimidin-5(4H)-one]
8 | < 100 | [2H]C([2H])([2H])C([2H])(n1cc(C(F)(F)F)nc1-c1ccc(CN2C(=O)CCn3nc(-c4c(OC(F)F)ncnc4C4CC4)nc32)cc1)C([2H])([2H])[2H] [Example 374, 2-(4-cyclopropyl-6-(difluoromethoxy)pyrimidin-5-yl)-4-(4-(1-(propan-2-yl-d7)-4-(trifluoromethyl)-1H-imidazol-2-yl)benzyl)-6,7-dihydro-[1,2,4]triazolo[1,5-a]pyrimidin-5(4H)-one]
9 | < 100 | [2H]C([2H])([2H])C([2H])([2H])n1cc(C(F)(F)F)nc1-c1ccc(CN2C(=O)CCn3nc(-c4c(OC(F)F)ncnc4C4CC4)nc32)cc1 [Example 375, 2-(4-cyclopropyl-6-(difluoromethoxy)pyrimidin-5-yl)-4-(4-(1-(ethyl-d5)-4-(trifluoromethyl)-1H-imidazol-2-yl)benzyl)-6,7-dihydro-[1,2,4]triazolo[1,5-a]pyrimidin-5(4H)-one]
10 | < 100 | CCn1cc(C(F)(F)F)nc1-c1ccc(CN2C(=O)CCn3nc(-c4c(OC)ncnc4OC(F)F)nc32)cc1 [Example 376, 2-(4-(difluoromethoxy)-6-methoxypyrimidin-5-yl)-4-(4-(1-ethyl-4-(trifluoromethyl)-1H-imidazol-2-yl)benzyl)-6,7-dihydro-[1,2,4]triazolo[1,5-a]pyrimidin-5(4H)-one]
11 | < 100 | Cn1cc(C(F)(F)F)nc1-c1ccc(CN2C(=O)CCn3nc(-c4c(OC(F)F)ncnc4C4CC4)nc32)cc1F [Example 377, 2-(4-cyclopropyl-6-(difluoromethoxy)pyrimidin-5-yl)-4-(3-fluoro-4-(1-methyl-4-(trifluoromethyl)-1H-imidazol-2-yl)benzyl)-6,7-dihydro-[1,2,4]triazolo[1,5-a]pyrimidin-5(4H)-one]

Further lines, the compound ahead of its results:

Row | Compound | IC50 [nM]
12 | COCc1cccnc1-c1ccc(CN2C(=O)CCn3nc(-c4c(Cl)cnn4C(C)C)cc32)cc1Cl [Example 300] | 100 to 500
13 | COc1cc(C)cnc1-c1ccc(CN2C(=O)CCn3nc(-c4c(Cl)cnn4C(C)C)cc32)cc1Cl [Example 301] | 100 to 500
14 | CC(C)Oc1cccnc1-c1ccc(CN2C(=O)CCn3nc(-c4c(Cl)cnn4C(C)C)nc32)cc1Cl [Example 302] | 100 to 500
15 | CC(C)n1ccnc1-c1ccc(CN2C(=O)CCn3nc(-c4c(Cl)cnn4C(C)C)cc32)cc1Cl [Example 303] | 100 to 500
16 | COc1cccnc1-c1ccc(CN2C(=O)CCn3nc(-c4c(OC)ncnc4C4CC4)nc32)cc1Cl [Example 306] | 100 to 500
17 | COc1cccnc1-c1ccc(CN2C(=O)CCn3nc(-c4c(OC)ncnc4C4CC4)nc32)cc1F [Example 308] | 100 to 500
18 | COc1cc(CN2C(=O)CCn3nc(-c4c(Cl)cnn4C(C)C)cc32)ccc1-c1ncccc1Cl [Example 311] | > 500
19 | COc1cccnc1-c1ccc(CN2C(=O)CCn3nc(-c4c(OC)ncnc4C4CC4)cc32)cc1Cl [Example 313] | 100 to 500
20 | CCNc1ccc(-c2ccc(CN3C(=O)CCn4nc(-c5c(Cl)cnn5C(C)C)cc43)cc2Cl)nn1 [Example 314] | > 500
21 | CC(C)n1cnc(-c2ccc(CN3C(=O)CCn4nc(-c5c(Cl)cnn5C(C)C)cc43)cc2Cl)c1 [Example 315] | > 500
22 | CC(C)n1ncc(Cl)c1-c1cc2n(n1)CCC(=O)N2Cc1ccc(-c2nc(C(F)(F)F)ccc2F)c(Cl)c1 [Example 316] | 100 to 500
23 | COc1cccnc1-c1ccc(CN2C(=O)CCn3nc(-c4c(OC)ncnc4C4CC4)cc32)cc1F [Example 317] | 100 to 500
24 | COc1cncnc1-c1ccc(CN2C(=O)CCn3nc(-c4c(Cl)cnn4C(C)C)cc32)cc1Cl [Example 318] | > 500
25 | COc1ccc(-c2ccc(CN3C(=O)CCn4nc(-c5c(Cl)cnn5C(C)C)cc43)cc2Cl)nn1 [Example 319] | > 500
26 | CC(C)n1ncc(Cl)c1-c1cc2n(n1)CCC(=O)N2Cc1ccc(-c2ccn(S(=O)(=O)N(C)C)n2)c(Cl)c1 [Example 320] | 100 to 500
27 | CC(C)n1ncc(Cl)c1-c1nc2n(n1)CCC(=O)N2Cc1ccc(-c2ncccc2OCC(F)F)cc1 [Example 322] | 100 to 500
28 | CCn1cc(C(F)(F)F)nc1-c1ccc([C@@H](C)N2C(=O)CCn3nc(-c4c(C#N)cnn4C(C)C)cc32)cc1F [Example 326, (R)-5-(4-(1-(4-(1-ethyl-4-(trifluoromethyl)-1H-imidazol-2-yl)-3-fluorophenyl)ethyl)-5-oxo-4,5,6,7-tetrahydropyrazolo[1,5-α]pyrimidin-2-yl)-1-isopropyl-1H-pyrazole-4-carbonitrile] | 100 to 500
29 | CCn1cc(C(F)(F)F)nc1-c1ccc(CN2C(=O)CCn3nc(-c4c(OC(F)F)cnn4C(C)C)cc32)cc1F [Example 329, 2-(4-(difluoromethoxy)-1-isopropyl-1H-pyrazol-5-yl)-4-(4-(1-ethyl-4-(trifluoromethyl)-1H-imidazol-2-yl)-3-fluorobenzyl)-6,7-dihydropyrazolo[1,5-α]pyrimidin-5(4H)-one] | 100 to 500
30 | CC(C)n1cc(C(F)(F)F)nc1-c1ccc(Cn2c(=O)ccn3nc(-c4c(OC(F)F)ncnc4C4CC4)nc23)cc1 [Example 344, 2-(4-cyclopropyl-6-(difluoromethoxy)pyrimidin-5-yl)-4-(4-(1-isopropyl-4-(trifluoromethyl)-1H-imidazol-2-yl)benzyl)-[1,2,4]triazolo[1,5-a]pyrimidin-5(4H)-one] | < 100
31 | CCn1cc(C(F)(F)F)nc1-c1cnc(CN2C(=O)CCn3nc(-c4c(Cl)cnn4C(C)C)cc32)nc1 [Example 354, 2-(4-chloro-1-isopropyl-1H-pyrazol-5-yl)-4-((5-(1-ethyl-4-(trifluoromethyl)-1H-imidazol-2-yl)pyrimidin-2-yl)methyl)-6,7-dihydropyrazolo[1,5-α]pyrimidin-5(4H)-one] | > 500
32 | CCn1cc(C(F)(F)F)nc1-c1ccc(N(C)C2CCCc3nn(-c4ccccc4C(C)C)cc32)cc1F (stereo not drawn) [Example 356, N-(4-(1-ethyl-4-(trifluoromethyl)-1H-imidazol-2-yl)-3-fluorophenyl)-2-(2-isopropylphenyl)-N-methyl-4,5,6,7-tetrahydro-2H-indazol-4-amine] | 100 to 500
33 | CCn1cc(C(F)(F)F)nc1-c1ccc(CC2NCCn3nc(-c4c(Cl)cnn4C(C)C)cc32)cc1 (stereo not drawn) [Example 359, 2-(4-chloro-1-isopropyl-1H-pyrazol-5-yl)-4-(4-(1-ethyl-4-(trifluoromethyl)-1H-imidazol-2-yl)benzyl)-4,5,6,7-tetrahydropyrazolo[1,5-α]pyrazine] | 100 to 500
